In US20220362249A1, “METHODS FOR TREATING […]” (PTC Therapeutics MP, Inc., priority 2019, published 2022):
Values joined by “and” are separate entries in the source; they are usually repeats but may differ in a detail not shown here. Equal values may be shown once.

Assays:
[1] = Comparison of adverse events in fed and fasted subjects; format: in vivo, human; settings: single dose 10 mg/kg, twelve subjects
Experimental: Method: Twelve subjects were given a single dose (10 mg/kg) of sepiapterin under fasting conditions and then 7 days later under fed conditions. Standard definitions of adverse events (AE) were used. All-cause AE were those that occurred at any time; treatment-emergent adverse events (TEAE) were those that occurred at or after the time of administration of study treatment. TEAEs related to study drug were based on the opinion of the investigator. Serious AE were defined as life threatening or caused death, hospitalization or prolongation of existing hospitalization, or were a persistent or significant disability/incapacity or a substantial disruption of the ability to conduct normal life functions, or a congenital anomaly/birth defect.

[2] = tested on: blood Phe; test: Reduction of blood Phe in patients with PKU, randomized crossover of PTC923 vs sapropterin dihydrochloride; format: in vivo, human; settings: for Proportion of patients achieving blood Phe <360 μmol/L: n of 24; for Mean (SD) blood Phe, At baseline: Day 1 pre-dose; for Least squares mean (SE) change from baseline in blood Phe / Mean (SD) blood Phe, Change / Mean (SD) blood Phe, On treatment: 7 days; for Mean (SD) blood Phe, On treatment: mean of days 3, 5 and 7
Experimental: Following screening for eligibility, a 7-day run-in period commenced. Patients then received 7 days of once-daily oral treatment with either PTC923 20 mg/kg/day (“low dose”), or PTC923 60 mg/kg/day or sapropterin dihydrochloride, in a random order. PTC923 (formerly CNSA-001) is oral sepiapterin. Each patient was randomized to one of six treatment sequences (FIG. 2). The randomization in six different treatment sequences was intended to minimize carry over effect, treatment period effect, patient fatigue, and natural fluctuations in blood Phe levels. A 7-day washout period separated each active treatment period. Patients were asked to maintain their usual pre-study diet, including consumption of amino acid mixtures if prescribed, and were monitored throughout the study by a metabolic dietician.
Blood samples for measurement of Phe were taken on 7, 5, 3, and 1 days before randomization. During treatment periods, blood was taken pre-dose for day 1 and post-dose for days 3, 5 and 7. During the washout periods, blood was taken for measurement of Phe on days 1, 3, 5, and 7. All samples were taken under fasting conditions or no earlier than 3 hours following a meal and at the same time of day. Blood Phe was measured using a validated LC-MS-MS technique of dried blood sampling via Volumetric Absorptive Microsampling (VAMS®) using Mitra® 4-sampler clamshells, at a central bioanalytical laboratory (Agilex Biolabs Pty Ltd).
The main objective of the study was to assess the efficacy of PTC923 measured as the mean blood Phe change from baseline. The efficacy population consisted of all patients who were randomized and had blood Phe measurements before treatment and at days 3, 5 and 7 of treatment from at least one treatment period. The safety population consisted of all patients who were randomized and who received any dose of study treatment. The sample size calculation was based on an all-comers, placebo-controlled regulatory study of sapropterin with an observed mean decrease in blood Phe of 99 μmol/L and standard deviation of 220 μmol/L, and assumed a true mean decrease in blood Phe of 300 μmol/L with 80% power utilizing a 2-sided α of 0.05.
Response to PTC923 was evaluated by measuring the mean change from baseline in blood Phe (calculated as the mean of measurements at days 3, 5 and 7 of each treatment period). Day 1 pre-dose blood Phe concentrations for each treatment period served as the individual patient specific baseline for that period.
The change from baseline in blood Phe of each treatment period was modelled using a linear mixed model for repeated measures (MMRM). The efficacy model included fixed effects for baseline for each treatment period, treatment group, sequence, period, and a random subject effect within each sequence, with a first order autoregressive AR (1) covariance structure. No unplanned covariates were included.
Pairwise comparisons in changes from baseline in Phe were performed between each PTC923 treatment and sapropterin treatment by calculating the least squares means with Dunnet's method of adjustment for multiple comparisons. The estimated change in blood Phe levels, their standard errors (SE) and associated p-values were calculated for each pairwise comparison. Dunnet's method of adjustment was used to account for the multiple comparisons of the test groups against the control group. This adjustment ensured that the overall Type I error rate under the null hypothesis was maintained despite multiple test groups being compared to the single control group.
The overall mean changes in blood Phe for each treatment were calculated and the standard deviations (SD) were determined.
A prespecified sensitivity analysis excluded treatment periods where baseline Phe was <300 μmol/L and a responder analysis looked at patients with baselines ≥300 μmol/L who responded to sapropterin and/or to PTC923 treatment by ≥20% reduction.

[3] = All subjects (N = 24), 20 mg/kg/day oral
[4] = All subjects (N = 24), 60 mg/kg/day oral
[5] = Subjects with classical PKU (N = 11), 20 mg/kg/day oral
[6] = Subjects with classical PKU (N = 11), 60 mg/kg/day oral
[7] = patients on PTC923 60mg/kg with at least 30% reduction in Phe

## C[C@H](O)C(=O)C1=Nc2c(nc(N)[nH]c2=O)NC1 [sepiapterin, Sepiapterin]
[1]; Fasted
  TEAE: 4
  TEAE related to study drug: 1
  ≥1 AE: 5
[1]; Fed
  TEAE: 1
  TEAE related to study drug: 0
  ≥1 AE: 1
[2]; 20 mg/kg
  Proportion of patients achieving blood Phe <360 μmol/L: 46%
[2]; 60 mg/kg
  Proportion of patients achieving blood Phe <360 μmol/L: 50%
[2]; 11 patients with classical PKU, PTC923 60 mg/kg
  LSM difference in blood Phe change vs. sapropterin dihydrochloride: -148.0 µmol/L
[2]; All subjects (N = 24), 20 mg/kg period
  Mean (SD) blood Phe, At baseline: 694.2 (396.0) μmol/L
[2]; [3]
  Least squares mean (SE) change from baseline in blood Phe: −146.9 (41.8) μmol/L
  Mean (SD) blood Phe, Change: −143.7 (224.8) μmol/L
  Mean (SD) blood Phe, On treatment: 550.4 (433.7) μmol/L
[2]; All subjects (N = 24), 60 mg/kg period
  Mean (SD) blood Phe, At baseline: 727.8 (388.2) μmol/L
[2]; [4]
  Least squares mean (SE) change from baseline in blood Phe: −206.4 (41.8) μmol/L
  Mean (SD) blood Phe, Change: −210.1 (235.8) μmol/L
  Mean (SD) blood Phe, On treatment: 517.7 (411.7) μmol/L
[2]; Day 3, 20 mg/kg
  Least squares mean change from baseline in blood Phe to first Phe measurement (Day 3): -167.5 µmol/L
[2]; Day 3, 60 mg/kg
  Least squares mean change from baseline in blood Phe to first Phe measurement (Day 3): -206.6 µmol/L
[2]; Day 3, PTC923 20 mg/kg, underlying changes in μmol/L
  LSM difference in blood Phe change vs. sapropterin dihydrochloride: −95.2
[2]; Day 3, PTC923 60 mg/kg, underlying changes in μmol/L
  LSM difference in blood Phe change vs. sapropterin dihydrochloride: −131.3
[2]; PTC923 20 mg/kg
  Effect on blood Phe compared with sapropterin dihydrochloride 20 mg/kg (in words): numerically larger
[2]; PTC923 60 mg/kg, p=0.0098
  Reducing blood Phe compared with sapropterin dihydrochloride 20 mg/kg (in words): significantly more effective
[2]; PTC923 (60 mg/kg/day)
  Mean absolute reduction in plasma phenylalanine (FIG. 1): over 200 micromole per liter
[2]; Subjects with classical PKU (N = 11), 20 mg/kg period
  Mean (SD) blood Phe, At baseline: 944.6 (354.6) μmol/L
[2]; [5]
  Mean (SD) blood Phe, Change: −75.5 (201.8) μmol/L
  Mean (SD) blood Phe, On treatment: 869.1 (424.1) μmol/L
[2]; Subjects with classical PKU (N = 11), 20 mg/kg/day oral, listed as PTC923, 20 mg/kg/day
  Least squares mean (SE) change from baseline in blood Phe: −71.5 μmol/L and −71.5 (61.8) μmol/L
[2]; Subjects with classical PKU (N = 11), 60 mg/kg period
  Mean (SD) blood Phe, At baseline: 947.2 (363.0) μmol/L
[2]; [6]
  Mean (SD) blood Phe, Change: −146.0 (187.7) μmol/L
  Mean (SD) blood Phe, On treatment: 801.2 (396.5) μmol/L
[2]; Subjects with classical PKU (N = 11), 60 mg/kg/day oral, listed as PTC923, 60 mg/kg/day
  Least squares mean (SE) change from baseline in blood Phe: −150.8 μmol/L and −150.8 (63.1) μmol/L
[2]; classical PKU subjects
  Classical PKU subjects responding with a decrease in phenylalanine levels of at least 20%: about 45%
[2]; cofactor responder analysis
  Number of patients showing blood Phe reduction of ≥20%, higher than with sapropterin: 50%
[2]; day 7
  Number of subjects normalized (day 7 blood phenylalanine less than 120 micromole per liter) compared to sapropterin dihydrochloride: 3-4 times
[2]; group of 12 responders (Phe reduction ≥20%, baseline ≥300 μmol/L), 20 mg/kg
  Least squares mean change from baseline in blood Phe: -234.8 µmol/L
[2]; group of 12 responders (Phe reduction ≥20%, baseline ≥300 μmol/L), 60 mg/kg
  Least squares mean change from baseline in blood Phe: -322.2 µmol/L
[2]; group of 12 responders, PTC923 60 mg/kg
  LSM difference in blood Phe change vs. sapropterin dihydrochloride: -182.5 µmol/L
[2]; human, in vivo
  Subject-reported effects (in words): improvement in sleep quality and better focus
  Times more likely to reach normalized blood phenylalanine (less than 120 micromole per liter) compared to sapropterin dihydrochloride: 13.45 times
[2]; non-classical subjects
  Non-classical subjects normalized (blood phenylalanine less than 120 micromole per liter): 46%
[2]; on either dose of PTC923
  Proportion of patients achieving blood Phe <360 μmol/L: 54%
[2]; overall responders
  More subjects responded than to sapropterin dihydrochloride: 60%
[2]; [7]
  Absolute Phe reduction from baseline: -485.3 µmol/L
  Absolute mean percentage change in Phe from baseline: -72.5%
[2]; sensitivity analysis population (excluding periods with baseline Phe <300 μmol/L), 20 mg/kg
  Least squares mean change from baseline in blood Phe: -167.8 µmol/L
[2]; sensitivity analysis population (excluding periods with baseline Phe <300 μmol/L), 60 mg/kg
  Least squares mean change from baseline in blood Phe: -226.9 µmol/L
[2]; sensitivity analysis population, PTC923 60 mg/kg
  LSM difference in blood Phe change vs. sapropterin dihydrochloride: -121.4 µmol/L
